Assay results: PubChem BioAssay (NCI)
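GI50: concentration for 50% inhibition of growth. TGI is the concentration that stops growth completely.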

Key:
Test in all cases: NCI-60 cell line screen, 384-well format
786-0 renal = system: 786-0 renal
A498 renal = system: A498 renal
A549 NSCLC = system: A549 NSCLC
ACHN renal = system: ACHN renal
BT-549 breast = system: BT-549 breast
CAKI-1 renal = system: CAKI-1 renal
CCRF-CEM leukemia = system: CCRF-CEM leukemia
COLO 205 colon = system: COLO 205 colon
DU-145 prostate = system: DU-145 prostate
EKVX NSCLC = system: EKVX NSCLC
HCC-2998 colon = system: HCC-2998 colon
HCT-116 colon = system: HCT-116 colon
HCT-15 colon = system: HCT-15 colon
HL-60(TB) leukemia = system: HL-60(TB) leukemia
HOP-62 NSCLC = system: HOP-62 NSCLC
HOP-92 NSCLC = system: HOP-92 NSCLC
HS 578T breast = system: HS 578T breast
HT29 colon = system: HT29 colon
IGROV1 ovarian = system: IGROV1 ovarian
K-562 leukemia = system: K-562 leukemia
KM12 colon = system: KM12 colon
LOX IMVI melanoma = system: LOX IMVI melanoma
M14 melanoma = system: M14 melanoma
MALME-3M melanoma = system: MALME-3M melanoma
MCF7 breast = system: MCF7 breast
MDA-MB-231 breast = system: MDA-MB-231 breast
MDA-MB-435 melanoma = system: MDA-MB-435 melanoma
MDA-MB-468 breast = system: MDA-MB-468 breast
MOLT-4 leukemia = system: MOLT-4 leukemia

`NS(=O)(=O)OC[C@H]1C[C@@H](Nc2ccnc3cc(-c4cccc(SC(F)(F)F)c4)nn23)[C@H](O)[C@@H]1O` showed a GI50 ([…]-0 renal) of 18.7 nM, a TGI (786-0 renal) of 36.1 nM and a GI50 (A498 renal) of less than 10 nM. The TGI (A498 renal) was 21.2 nM, the GI50 (A549 NSCLC) was 59.6 nM and the TGI (A549 NSCLC) was 191 nM. For the same compound, the GI50 (ACHN renal) was 59 nM, the TGI (ACHN renal) was 190 nM and the GI50 (BT-549 breast) was less than 10 nM. It also gave a TGI (BT-549 breast) of 16.1 nM, a GI50 (CAKI-1 renal) of 18.9 nM and a TGI (CAKI-1 renal) of 36 nM. For the same compound, the GI50 (CCRF-CEM leukemia) was less than 10 nM, the TGI (CCRF-CEM leukemia) was less than 10 nM and the GI50 (COLO 205 colon) was less than 10 nM. The TGI (COLO 205 colon) was 14.9 nM, the GI50 (DU-145 prostate) was less than 10 nM and the TGI (DU-145 prostate) was 44.9 nM. The GI50 (EKVX NSCLC) was 14 nM, the TGI (EKVX NSCLC) was 28 nM and the GI50 (HCC-2998 colon) was 13.1 nM. It also gave a TGI (HCC-2998 colon) of 27.4 nM, a GI50 (HCT-116 colon) of less than 10 nM and a TGI (HCT-116 colon) of 11.3 nM. For the same compound, the GI50 (HCT-15 colon) was 33.2 nM, the TGI (HCT-15 colon) was 117 nM and the GI50 (HL-60(TB) leukemia) was less than 10 nM. The TGI (HL-60(TB) leukemia) was less than 10 nM, the GI50 (HOP-62 NSCLC) was less than 10 nM and the TGI (HOP-62 NSCLC) was 11.4 nM. The GI50 (HOP-92 NSCLC) was 12.2 nM, the TGI (HOP-92 NSCLC) was 25.4 nM and the GI50 (HS 578T breast) was 14.2 nM. The TGI (HS 578T breast) was 28.4 nM, the GI50 (HT29 colon) was 94.7 nM and the TGI (HT29 colon) was 222 nM. The GI50 (IGROV1 ovarian) was 15.1 nM, the TGI (IGROV1 ovarian) was 30.1 nM and the GI50 (K-562 leukemia) was less than 10 nM. It also gave a TGI (K-562 leukemia) of less than 10 nM, a GI50 (KM12 colon) of 25.5 nM and a TGI (KM12 colon) of 59.7 nM. It also gave a GI50 (LOX IMVI melanoma) of less than 10 nM, a TGI (LOX IMVI melanoma) of less than 10 nM and a GI50 (M14 melanoma) of 15.8 nM. The TGI (M14 melanoma) was 30.7 nM, the GI50 (MALME-3M melanoma) was less than 10 nM and the TGI (MALME-3M melanoma) was 21.5 nM. For the same compound, the GI50 (MCF7 breast) was 11.5 nM, the TGI (MCF7 breast) was 31.2 nM and the GI50 (MDA-MB-231 breast) was less than 10 nM. The TGI (MDA-MB-231 breast) was 23.4 nM, the GI50 (MDA-MB-435 melanoma) was 17.4 nM and the TGI (MDA-MB-435 melanoma) was 32.7 nM. For the same compound, the GI50 (MDA-MB-468 breast) was less than 10 nM, the TGI (MDA-MB-468 breast) was less than 10 nM and the GI50 (MOLT-4 leukemia) was 12.9 nM. The TGI (MOLT-4 leukemia) was 26 nM.
